Laboratory results: the kinase profiling compilation of Christmann-Franck et al. (2016)

Columns and labels:
Test in all cases: KINOMEscan competition binding
Conditions in all cases: compound 10.0 µM
[1] = target: EIF2AK2 (human) (UniProt P19525)
[2] = target: CAMK2G (human) (UniProt Q13555)
[3] = target: AAK1 (human) (UniProt Q2M2I8)
[4] = target: ITK (human) (UniProt Q08881)
[5] = target: ADCK4 (human) (UniProt Q96D53)
[6] = target: BMPR1B (human) (UniProt O00238)
[7] = target: CDK11B (human) (UniProt P21127)
[8] = target: YES1 (human) (UniProt P07947)
Sequence of YES1 (human) (P07947 whole entry, looked up): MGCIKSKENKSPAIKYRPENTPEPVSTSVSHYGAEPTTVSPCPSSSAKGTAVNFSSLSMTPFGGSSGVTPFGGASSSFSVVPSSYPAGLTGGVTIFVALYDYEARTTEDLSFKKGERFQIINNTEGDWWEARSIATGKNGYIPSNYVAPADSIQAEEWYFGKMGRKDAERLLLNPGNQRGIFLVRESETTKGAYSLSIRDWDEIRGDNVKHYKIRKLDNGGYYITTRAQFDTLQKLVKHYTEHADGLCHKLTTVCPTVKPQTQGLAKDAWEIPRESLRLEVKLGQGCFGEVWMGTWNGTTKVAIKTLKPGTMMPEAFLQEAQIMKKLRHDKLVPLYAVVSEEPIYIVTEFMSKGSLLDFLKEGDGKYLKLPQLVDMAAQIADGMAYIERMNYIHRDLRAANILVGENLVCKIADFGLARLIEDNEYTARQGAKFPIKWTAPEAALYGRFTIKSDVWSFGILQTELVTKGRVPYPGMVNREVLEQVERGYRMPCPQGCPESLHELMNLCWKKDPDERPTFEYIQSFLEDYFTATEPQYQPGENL

[9] = target: CSNK1D (human) (UniProt P48730)
[10] = target: EPHA1 (human) (UniProt P21709)
[11] = target: AKT3 (human) (UniProt Q9Y243)
[12] = target: SRC (human) (UniProt P12931)
[13] = target: MAPK10 (human) (UniProt P53779)
[14] = target: STK3 (human) (UniProt Q13188)
Sequence of STK3 (human) (Q13188 whole entry, looked up): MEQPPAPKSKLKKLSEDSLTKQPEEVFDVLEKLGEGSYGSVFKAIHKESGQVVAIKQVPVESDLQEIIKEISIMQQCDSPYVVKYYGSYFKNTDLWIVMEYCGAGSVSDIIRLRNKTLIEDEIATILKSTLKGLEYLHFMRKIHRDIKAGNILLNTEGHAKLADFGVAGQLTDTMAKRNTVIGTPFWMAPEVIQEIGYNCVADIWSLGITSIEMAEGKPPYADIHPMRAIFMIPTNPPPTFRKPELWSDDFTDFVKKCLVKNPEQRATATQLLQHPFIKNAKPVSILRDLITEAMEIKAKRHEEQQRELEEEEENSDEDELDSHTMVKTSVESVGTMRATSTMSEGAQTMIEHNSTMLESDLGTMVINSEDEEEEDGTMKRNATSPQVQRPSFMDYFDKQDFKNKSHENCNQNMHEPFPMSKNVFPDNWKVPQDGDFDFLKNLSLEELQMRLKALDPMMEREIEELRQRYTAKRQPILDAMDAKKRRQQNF

[15] = target: EPHA5 (human) (UniProt P54756)
[16] = target: MAP2K3 (human) (UniProt P46734)
[17] = target: CDK19 (human) (UniProt Q9BWU1)
Sequence of CDK19 (human) (Q9BWU1 whole entry, looked up): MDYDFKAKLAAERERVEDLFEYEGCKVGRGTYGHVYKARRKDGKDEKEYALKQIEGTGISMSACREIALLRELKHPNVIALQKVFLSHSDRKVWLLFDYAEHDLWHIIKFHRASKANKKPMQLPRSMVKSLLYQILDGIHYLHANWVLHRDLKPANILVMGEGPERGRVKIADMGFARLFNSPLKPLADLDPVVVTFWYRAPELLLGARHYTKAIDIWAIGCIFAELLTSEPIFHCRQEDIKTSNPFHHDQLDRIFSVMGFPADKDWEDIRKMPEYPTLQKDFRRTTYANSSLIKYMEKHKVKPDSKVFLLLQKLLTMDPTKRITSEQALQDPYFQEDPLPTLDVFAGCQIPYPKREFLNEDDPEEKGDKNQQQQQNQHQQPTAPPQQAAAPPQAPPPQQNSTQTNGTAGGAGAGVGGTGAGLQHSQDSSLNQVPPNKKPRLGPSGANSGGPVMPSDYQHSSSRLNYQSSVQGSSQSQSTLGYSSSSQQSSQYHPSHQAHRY

[18] = target: MAPK13 (human) (UniProt O15264)
[19] = target: STK32C (human) (UniProt Q86UX6)
[20] = target: FLT3 (human) (UniProt P36888)
[21] = target: PHKG2 (human) (UniProt P15735)
[22] = target: HCK (human) (UniProt P08631)
[23] = target: NEK1 (human) (UniProt Q96PY6)
[24] = target: MAP2K1 (human) (UniProt Q02750)
[25] = target: SIK1 (human) (UniProt P57059)
Sequence of SIK1 (human) (P57059 whole entry, looked up): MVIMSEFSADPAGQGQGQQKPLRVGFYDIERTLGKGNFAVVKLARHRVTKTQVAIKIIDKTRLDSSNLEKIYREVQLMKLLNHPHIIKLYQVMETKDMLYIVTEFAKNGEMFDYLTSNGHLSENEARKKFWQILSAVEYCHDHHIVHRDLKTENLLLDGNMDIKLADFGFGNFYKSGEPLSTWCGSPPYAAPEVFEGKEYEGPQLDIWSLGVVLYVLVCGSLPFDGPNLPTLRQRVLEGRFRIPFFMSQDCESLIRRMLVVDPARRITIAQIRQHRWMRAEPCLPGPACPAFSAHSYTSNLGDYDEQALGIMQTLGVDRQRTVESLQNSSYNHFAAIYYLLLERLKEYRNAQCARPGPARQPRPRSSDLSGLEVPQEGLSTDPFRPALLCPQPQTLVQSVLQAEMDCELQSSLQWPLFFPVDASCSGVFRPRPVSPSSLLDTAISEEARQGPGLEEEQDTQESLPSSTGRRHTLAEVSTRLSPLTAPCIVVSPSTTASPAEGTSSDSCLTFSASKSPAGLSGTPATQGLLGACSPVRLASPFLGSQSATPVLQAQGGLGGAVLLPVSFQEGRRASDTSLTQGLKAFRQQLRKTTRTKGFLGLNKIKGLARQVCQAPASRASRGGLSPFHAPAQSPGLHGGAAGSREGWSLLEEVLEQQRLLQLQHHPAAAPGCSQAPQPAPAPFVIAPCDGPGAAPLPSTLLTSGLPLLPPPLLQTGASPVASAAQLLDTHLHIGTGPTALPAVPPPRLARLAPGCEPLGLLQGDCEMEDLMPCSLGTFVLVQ

[26] = target: PRKD3 (human) (UniProt O94806)
[27] = system: ABL1 (human), P00519 [M351T]
[28] = target: MINK1 (human) (UniProt Q8N4C8)
[29] = target: EPHA2 (human) (UniProt P29317)
[30] = target: ACVR1B (human) (UniProt P36896)
Sequence of ACVR1B (human) (P36896 whole entry, looked up): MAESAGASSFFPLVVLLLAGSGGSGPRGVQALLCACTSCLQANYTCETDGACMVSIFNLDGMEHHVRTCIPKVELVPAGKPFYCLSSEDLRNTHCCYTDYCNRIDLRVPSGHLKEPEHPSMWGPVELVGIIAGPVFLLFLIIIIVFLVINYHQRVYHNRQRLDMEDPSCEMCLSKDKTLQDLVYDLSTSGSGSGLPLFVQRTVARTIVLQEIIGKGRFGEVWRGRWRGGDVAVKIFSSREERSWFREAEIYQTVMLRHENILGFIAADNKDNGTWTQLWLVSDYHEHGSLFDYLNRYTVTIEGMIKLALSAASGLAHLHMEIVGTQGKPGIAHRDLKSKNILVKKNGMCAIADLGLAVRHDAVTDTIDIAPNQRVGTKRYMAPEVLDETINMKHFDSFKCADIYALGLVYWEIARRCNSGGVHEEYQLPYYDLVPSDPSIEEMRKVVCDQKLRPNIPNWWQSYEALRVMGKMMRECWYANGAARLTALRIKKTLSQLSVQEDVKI

[31] = target: TEC (human) (UniProt P42680)
[32] = target: PRKAA2 (human) (UniProt P54646)
[33] = target: MUSK (human) (UniProt O15146)
[34] = target: DAPK1 (human) (UniProt P53355)
[35] = target: BMPR2 (human) (UniProt Q13873)
[36] = target: CHEK1 (human) (UniProt O14757)
[37] = target: FLT4 (human) (UniProt P35916)
[38] = target: MERTK (human) (UniProt Q12866)
[39] = target: DCLK3 (human) (UniProt Q9C098)
Sequence of DCLK3 (human) (Q9C098 whole entry, looked up): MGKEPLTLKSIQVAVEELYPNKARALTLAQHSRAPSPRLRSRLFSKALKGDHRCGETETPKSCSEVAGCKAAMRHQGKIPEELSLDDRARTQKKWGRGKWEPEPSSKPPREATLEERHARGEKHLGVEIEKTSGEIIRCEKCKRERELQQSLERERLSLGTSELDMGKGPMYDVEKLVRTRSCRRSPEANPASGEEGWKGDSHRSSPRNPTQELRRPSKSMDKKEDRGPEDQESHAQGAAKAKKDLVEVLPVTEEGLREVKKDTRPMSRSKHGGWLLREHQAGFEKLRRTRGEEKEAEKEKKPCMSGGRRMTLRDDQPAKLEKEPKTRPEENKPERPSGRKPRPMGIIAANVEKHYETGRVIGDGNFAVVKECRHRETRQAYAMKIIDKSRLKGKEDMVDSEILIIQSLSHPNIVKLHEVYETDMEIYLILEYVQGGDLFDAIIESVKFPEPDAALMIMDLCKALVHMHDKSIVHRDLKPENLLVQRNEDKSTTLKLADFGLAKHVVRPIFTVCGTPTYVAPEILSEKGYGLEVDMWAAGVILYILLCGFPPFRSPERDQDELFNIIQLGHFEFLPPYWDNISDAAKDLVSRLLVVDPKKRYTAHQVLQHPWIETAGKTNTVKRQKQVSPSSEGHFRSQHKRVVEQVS

[40] = target: RIPK1 (human) (UniProt Q13546)

Sequence of AAK1 (human) (Q2M2I8 whole entry, looked up): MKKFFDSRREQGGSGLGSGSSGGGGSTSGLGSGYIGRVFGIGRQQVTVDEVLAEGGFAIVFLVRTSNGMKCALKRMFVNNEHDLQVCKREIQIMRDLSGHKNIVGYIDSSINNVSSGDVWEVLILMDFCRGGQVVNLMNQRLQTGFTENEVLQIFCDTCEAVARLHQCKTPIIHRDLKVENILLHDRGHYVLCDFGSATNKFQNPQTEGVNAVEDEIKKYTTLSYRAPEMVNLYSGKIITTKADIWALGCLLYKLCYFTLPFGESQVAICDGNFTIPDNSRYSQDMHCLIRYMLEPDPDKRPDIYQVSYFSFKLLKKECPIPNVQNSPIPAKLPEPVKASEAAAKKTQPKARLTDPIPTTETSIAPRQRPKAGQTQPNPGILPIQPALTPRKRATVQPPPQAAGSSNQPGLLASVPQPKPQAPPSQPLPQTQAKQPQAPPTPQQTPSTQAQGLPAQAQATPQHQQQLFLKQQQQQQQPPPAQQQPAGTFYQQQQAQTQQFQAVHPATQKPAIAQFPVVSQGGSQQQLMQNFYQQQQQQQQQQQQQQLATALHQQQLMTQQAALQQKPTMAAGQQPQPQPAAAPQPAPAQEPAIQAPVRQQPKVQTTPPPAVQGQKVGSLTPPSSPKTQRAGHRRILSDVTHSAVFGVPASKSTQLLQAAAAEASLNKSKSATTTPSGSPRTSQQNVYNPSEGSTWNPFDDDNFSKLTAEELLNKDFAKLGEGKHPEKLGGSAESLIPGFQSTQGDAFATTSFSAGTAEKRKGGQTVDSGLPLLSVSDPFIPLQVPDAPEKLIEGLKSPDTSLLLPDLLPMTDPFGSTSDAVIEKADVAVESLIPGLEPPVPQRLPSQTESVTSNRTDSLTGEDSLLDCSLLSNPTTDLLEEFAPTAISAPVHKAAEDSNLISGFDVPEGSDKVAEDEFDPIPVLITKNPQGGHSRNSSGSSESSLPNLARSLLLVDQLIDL
Sequence of CAMK2G (human) (Q13555 whole entry, looked up): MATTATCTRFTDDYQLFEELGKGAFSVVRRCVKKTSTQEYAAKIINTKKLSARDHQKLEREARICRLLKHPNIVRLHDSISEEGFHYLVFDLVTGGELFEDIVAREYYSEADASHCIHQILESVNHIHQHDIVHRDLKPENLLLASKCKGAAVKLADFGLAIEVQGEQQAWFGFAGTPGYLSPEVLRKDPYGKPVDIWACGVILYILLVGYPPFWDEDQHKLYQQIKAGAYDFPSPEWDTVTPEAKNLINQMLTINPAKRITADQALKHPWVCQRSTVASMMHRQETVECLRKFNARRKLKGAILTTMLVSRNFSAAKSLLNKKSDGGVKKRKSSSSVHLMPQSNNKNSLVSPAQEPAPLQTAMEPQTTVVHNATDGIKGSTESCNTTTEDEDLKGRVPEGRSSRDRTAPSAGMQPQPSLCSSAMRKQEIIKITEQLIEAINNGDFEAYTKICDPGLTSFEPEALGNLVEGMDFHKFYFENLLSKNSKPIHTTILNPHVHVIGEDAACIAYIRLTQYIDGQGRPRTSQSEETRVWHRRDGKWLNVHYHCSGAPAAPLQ

`Cc1cc([C@@H](C)Nc2ccccc2C(=O)O)c2nc(N3CCOCC3)cc(=O)n2c1` was tested, and the kinase still bound, per cent of control [1] was 99%, the kinase still bound, per cent of control [2] was 98% and the kinase still bound, per cent of control [3] was 95%. For the same compound, the kinase still bound, per cent of control [4] was 98%, the kinase still bound, per cent of control [5] was 79% and the kinase still bound, per cent of control [6] was 69%. For the same compound, the kinase still bound, per cent of control [7] was 100%, the kinase still bound, per cent of control [8] was 100% and the kinase still bound, per cent of control [9] was 86%. For the same compound, the kinase still bound, per cent of control [10] was 100%, the kinase still bound, per cent of control [11] was 100% and the kinase still bound, per cent of control [12] was 100%. It also gave a kinase still bound, per cent of control [13] of 82%, a kinase still bound, per cent of control [14] of 66% and a kinase still bound, per cent of control [15] of 99%. It also gave a kinase still bound, per cent of control [16] of 100%, a kinase still bound, per cent of control [17] of 91% and a kinase still bound, per cent of control [18] of 87%. It also gave a kinase still bound, per cent of control [19] of 82%, a kinase still bound, per cent of control [20] of 13% and a kinase still bound, per cent of control [21] of 100%. The kinase still bound, per cent of control [22] was 100%, the kinase still bound, per cent of control [23] was 85% and the kinase still bound, per cent of control [24] was 89%. It also gave a kinase still bound, per cent of control [25] of 100%, a kinase still bound, per cent of control [26] of 100% and a kinase still bound, per cent of control [27] of 94%. For the same compound, the kinase still bound, per cent of control [28] was 100%, the kinase still bound, per cent of control [29] was 70% and the kinase still bound, per cent of control [30] was 93%. The kinase still bound, per cent of control [31] was 91%, the kinase still bound, per cent of control [32] was 88% and the kinase still bound, per cent of control [33] was 100%. It also gave a kinase still bound, per cent of control [34] of 95%, a kinase still bound, per cent of control [35] of 85% and a kinase still bound, per cent of control [36] of 100%. The kinase still bound, per cent of control [37] was 95%, the kinase still bound, per cent of control [38] was 100% and the kinase still bound, per cent of control [39] was 85%. The kinase still bound, per cent of control [40] was 100%.
